# Measured values from patent publication US9487489B2, “Halogen-substituted pyrazole derivatives as pest-control agents” (BAYER CROPSCIENCE AKTIENGESELLSCHAFT, priority 2013, dated 2016).
# What was measured:
# [1] = system: adult cat fleas (Ctenocephalides felis); test: Ctenocephalides felis in vitro contact test with adult cat fleas (T1); details: after 48 h
# Protocol: T1. Ctenocephalides felis—in vitro Contact Tests with Adult Cat Fleas
# (§1) For the coating of the test tubes, initially 9 mg of active compound are dissolved in 1 ml of acetone p.a. and then diluted with acetone p.a. to the desired concentration. By turning and rocking on an orbital shaker (2 h of rocking rotation at 30 rpm), 250 μl of the solution are distributed homogeneously on the internal walls and the floor of a 25 ml test tube. At 900 ppm active compound solution and 44.7 cm^2 internal surface, an area dose of 5 μg/cm^2 is achieved for homogeneous distribution.
# After evaporation of the solvent, the tubes are populated with 5-10 adult cat fleas (Ctenocephalides felis), sealed with a perforated plastic lid and incubated in a horizontal position at room temperature and ambient humidity. After 48 h, the efficacy is determined. To this end, the test tubes are stood upright and the fleas are knocked to the floor of the tube. Fleas which remain motionless on the floor or move in an uncoordinated manner are considered to be dead or moribund.
# An efficacy of 100% means that all fleas were dead or moribund. 0% efficacy means that none of the fleas had been damaged.
# [2] = system: adult dog ticks (Rhipicephalus sanguineus); test: Rhipicephalus sanguineus in vitro contact test with adult brown dog ticks (T2); details: after 48 h
# Protocol: T2. Rhipicephalus sanguineus-in vitro Contact Tests with Adult Brown Dog Ticks
# as §1
# After evaporation of the solvent, the tubes are populated with 5-10 adult dog ticks (Rhipicephalus sanguineus), sealed with a perforated plastic lid and incubated in a horizontal position in the dark at room temperature and ambient humidity. After 48 h, the efficacy is determined. To this end, the ticks are knocked to the floor of the tube and incubated on a hotplate at 45-50° C. for at most 5 min Ticks which remain motionless on the floor or move in an uncoordinated manner such that they are not able to deliberately avoid the heat by climbing upwards are considered to be dead or moribund.
# An efficacy of 100% means that all ticks were dead or moribund. 0% efficacy means that none of the ticks had been damaged.
# [3] = logP determination by HPLC on a reversed-phase column (C18), EEC Directive 79/831 Annex V.A8; type: physicochemical
# Protocol: (§2) ^a) Note regarding the determination of the logP values and mass detection: The determination of the given logP values was carried out in accordance with EEC Directive 79/831 Annex V.A8 by HPLC (High Performance Liquid Chromatography) on a reversed-phase column (C18). Agilent 1100 LC system; 50*4.6 Zorbax Eclipse Plus C18 1.8 micron; mobile phase A: acetonitrile (0.1% formic acid); mobile phase B: water (0.09% formic acid); linear gradient from 10% acetonitrile to 95% acetonitrile in 4.25 min, then 95% acetonitrile for a further 1.25 min; oven temperature 55° C.; flow rate: 2.0 ml/min. Mass detection is carried out via an Agilend MSD system.
# as §2, with “^*)” for “^a)”
# [4] = system: larvae of the mustard beetle (Phaedon cochleariae); test: Phaedon cochleariae spray test (PHAECO); type: in vivo; details: Chinese cabbage leaf discs, after 7 days
# Protocol: H. Phaedon cochleariae-spray Test (PHAECO)
# Solvents: 78.0 parts by weight of acetone
# (§3) • 1.5 parts by weight of dimethylformamide Emulsifier: alkylaryl polyglycol ether
# (§4) To produce a suitable preparation of active compound, 1 part by weight of active compound is dissolved using the stated parts by weight of solvent and made up with water comprising an emulsifier concentration of 1000 ppm until the desired concentration is reached. To produce further test concentrations, the preparation is diluted with emulsifier-containing water.
# After 7 days, the efficacy in % is determined. 100% means that all of the beetle larvae have been killed; 0% means that none of the beetle larvae have been killed.
# [5] = system: caterpillars of the armyworm (Spodoptera frugiperda); test: Spodoptera frugiperda spray test (SPODFR); type: in vivo; details: maize leaf discs, after 7 days
# Protocol: I. Spodoptera frugiperda-spray Test (SPODFR)
# (§5) Solvent: 78.0 parts by weight of acetone
# as §3, §4
# Leaf discs of maize (Zea mays) are sprayed with an active compound preparation of the desired concentration and, after drying, populated with caterpillars of the armyworm (Spodoptera frugiperda).
# After 7 days, the efficacy in % is determined. 100% means that all of the caterpillars have been killed; 0% means that none of the caterpillars have been killed.
# [6] = system: greenhouse red spider mite (Tetranychus urticae); test: Tetranychus urticae spray test, OP-resistant (TETRUR); type: in vivo; details: bean leaf discs, after 6 days
# Protocol: J. Tetranychus urticae-spray Test, OP-Resistant (TETRUR)
# as §5, §3, §4
# Discs of bean leaves (Phaseolus vulgaris) which are infested by all stages of the greenhouse red spider mite (Tetranychus urticae) are sprayed with an active compound preparation of the desired concentration.
# After 6 days, the efficacy in % is determined. 100% means that all of the spider mites have been killed; 0% means that none of the spider mites have been killed.
# [7] = system: engorged adult female cattle ticks (Boophilus microplus); test: Boophilus microplus injection test (BOOPMI Inj); type: in vivo; details: application rate 20 μg/animal; injection into abdomen; assessed after 7 days
# Protocol: C. Boophilus microplus-injection Test (BOOPMI Inj)
# (§6) Solvent: dimethyl sulphoxide
# To produce a suitable preparation of active compound, 10 mg of active compound are mixed with 0.5 ml of solvent, and the concentrate is diluted with solvent to the desired concentration.
# 1 μl of the active compound solution is injected into the abdomen of 5 engorged adult female cattle ticks (Boophilus microplus). The animals are transferred into dishes and kept in a climate-controlled room.
# The activity is assessed after 7 days by laying of fertile eggs. Eggs whose fertility is not visible from the outside are stored in a climate-controlled cabinet until the larvae hatch after about 42 days. An efficacy of 100% means that none of the ticks has laid any fertile eggs; 0% means that all eggs are fertile.
# [8] = system: L1 larvae of the Australian sheep blowfly (Lucilia cuprina); test: Lucilia cuprina test (LUCICU); type: in vivo; details: application rate 100 ppm; after 2 days
# Protocol: E. Lucilia cuprina Test (LUCICU)
# as §6
# To produce a suitable preparation of active compound, 10 mg of active compound are mixed with 0.5 ml of dimethyl sulphoxide, and the concentrate is diluted with water to the desired concentration.
# About 20 L1 larvae of the Australian sheep blowfly (Lucilia cuprina) are transferred into a test vessel containing minced horsemeat and the active compound preparation of the desired concentration.
# After 2 days, the kill in % is determined 100% means that all of the larvae have been killed; 0% means that none of the larvae have been killed.
# [9] = system: adult cat fleas (Ctenocephalides felis); test: Ctenocephalides felis oral test (CTECFE); type: in vivo; details: application rate 100 ppm in citrated cattle blood; after 2 days
# Protocol: D. Ctenocephalides felis-oral Test (CTECFE)
# as §6
# To produce a suitable preparation of active compound, 10 mg of active compound are mixed with 0.5 ml of dimethyl sulphoxide. Dilution with citrated cattle blood gives the desired concentration.
# About 20 unfed adult cat fleas (Ctenocephalides felis) are placed into a chamber which is closed at the top and bottom with gauze. A metal cylinder whose bottom end is closed with a parafilm is placed onto the chamber. The cylinder contains the blood/active ingredient preparation, which can be imbibed by the fleas through the parafilm membrane.
# After 2 days, the kill in % is determined 100% means that all of the fleas have been killed; 0% means that none of the fleas have been killed.
# [10] = HPLC on reversed-phase column (C18), acetonitrile/water with formic acid, EEC Directive 79/831 Annex V.A8
SMILES,efficacy (dead or moribund fleas) ([1]; application rate 5 μg/cm^2),efficacy (dead or moribund ticks) ([2]; application rate 1 μg/cm^2),efficacy in % ([4]; application rate 100 g/ha),efficacy (laying of fertile eggs) [7],efficacy (kill in %) [8],efficacy in % ([4]; application rate 500 g/ha),efficacy (kill in %) [9],further results
Cn1nc(C(F)(F)C(F)(F)F)c(C(F)(F)F)c1-n1cc(-c2ccc(Cl)c(C(=O)NC3CCC3)c2)cn1 [Ic-143],100%,100%,–,–,–,–,–,efficacy (dead or moribund fleas) ([1]; application rate 1 μg/cm^2): 100%; efficacy (dead or moribund ticks) ([2]; application rate 5 μg/cm^2): 100%
CC(NC(=O)c1cc(-c2cnn(-c3c(C(F)(F)F)c(C(F)(F)C(F)(F)F)nn3C)c2)ccc1Cl)C(F)(F)F (stereo not drawn) [Ic-110],100%,–,100%,–,–,–,–,"logP [3, 10]: 4.23; efficacy in % ([5]; application rate 100 g/ha): 100%; efficacy in % ([6]; application rate 100 g/ha): 100%"
Cn1nc(C(F)(F)C(F)(F)F)c(C(F)(F)F)c1-n1cc(-c2cc(Cl)nc(C(=O)NC3CC3)c2)cn1 [Ic-88],–,–,–,100%,100%,100%,–,–
Cn1nc(C(F)(F)C(F)(F)F)c(C(F)(F)F)c1-n1cc(-c2cc(OC(F)(F)F)cc(C(=O)NC3CC3)c2)cn1 [Ic-74],–,–,–,100%,100%,100%,100%,efficacy in % ([5]; application rate 500 g/ha): 100%
O=C(NC1CC1)c1cc(-c2cnn(-c3c(C(F)(F)F)c(C(F)(F)C(F)(F)F)nn3-c3ncccc3Cl)c2)ccc1Cl [Ic-14],–,–,100%,100%,100%,–,–,"logP [3, 10]: 4.28; efficacy in % ([5]; application rate 100 g/ha): 100%"
Cn1nc(C(F)(F)C(F)(F)F)c(C(F)(F)F)c1-n1cnc(-c2ccc(Cl)c(C(=O)NC3(C#N)CC3)c2)n1 [Ie-1],–,–,100%,100%,–,–,100%,"logP ([3]; HPLC, reversed-phase C18, acetonitrile (0.1% formic acid)/water (0.09% formic acid) gradient): 3.62"
Cn1nc(C(F)(F)C(F)(F)F)c(C(F)(F)F)c1-n1cc(-c2cc(C(=O)NC3CC3)c(Cl)cc2F)cn1 [Ic-92],–,–,–,100%,95%,100%,80%,–
Cn1nc(C(F)(F)C(F)(F)F)c(C(F)(F)F)c1-n1cc(-c2cc(C(=O)NC3(C#N)CC3)ccc2F)cn1 [Ic-42],–,–,–,100%,100%,100%,100%,efficacy in % ([5]; application rate 500 g/ha): 83%
CC(C)CNC(=O)c1cc(-c2cnn(-c3c(C(F)(F)F)c(C(F)(F)C(F)(F)F)nn3C)c2)ccc1Cl [Ic-142],100%,80%,–,–,–,100%,–,efficacy in % ([5]; application rate 500 g/ha): 100%; efficacy in % ([6]; application rate 500 g/ha): 100%; efficacy (dead or moribund fleas) ([1]; application rate 1 μg/cm^2): 100%; efficacy (dead or moribund ticks) ([2]; application rate 5 μg/cm^2): 100%
Cn1nc(C(F)(F)C(F)(F)F)c(C(F)(F)F)c1-n1cc(-c2ccc(Cl)c(C(=O)NCC(=O)NCC(F)(F)F)c2)cn1 [Ic-31],–,–,100%,–,90%,–,100%,"logP [3, 10]: 3.65"
N#CC1(NC(=O)c2cc(-c3cnn(-c4c(C(F)(F)F)c(C(F)(F)C(F)(F)F)nn4-c4ncccc4Cl)c3)ccc2Cl)CC1 [Ic-15],–,–,100%,80%,–,–,–,"logP [3, 10]: 4.15"
Cc1cc(NC(=O)c2cc(-c3cnn(-c4c(C(F)(F)F)c(C(F)(F)C(F)(F)F)nn4C)c3)ccc2Cl)no1 [Ic-148],100%,80%,–,–,–,–,–,–
Cn1nc(C(F)(F)C(F)(F)F)c(C(F)(F)F)c1-n1cc(-c2cc(C(=O)NC3CC3)c(F)c(F)c2F)cn1 [Ic-201],–,100%,–,–,–,–,–,efficacy (dead or moribund ticks) ([2]; application rate 5 μg/cm^2): 100%
Cn1nc(C(F)(F)C(F)(F)F)c(C(F)(F)F)c1-n1cc(-c2cc(C(=O)NC3CC3)ncc2F)cn1 [Ic-72],–,–,–,100%,80%,100%,–,–
CONC(=O)c1cc(-c2cnn(-c3c(C(F)(F)F)c(C(F)(F)C(F)(F)F)nn3C)c2)ccc1Cl [Ic-155],100%,100%,–,–,–,–,–,efficacy (dead or moribund fleas) ([1]; application rate 1 μg/cm^2): 100%; efficacy (dead or moribund ticks) ([2]; application rate 5 μg/cm^2): 100%
